Test results reported in ChEMBL document CHEMBL1136842, “5-Nitrofuran-2-yl derivatives: synthesis and inhibitory activities against growing and dormant mycobacterium species” (Bioorg Med Chem Lett, 2009).
≈ marks a conversion by molar mass, not a printed value.

Tests used:
[1] = tested on: Mycobacterium tuberculosis; assay: Antimycobacterial activity against Mycobacterium tuberculosis H37Rv by agar dilution method; type: functional
[2] = tested on: Mycolicibacterium smegmatis; assay: Antimycobacterial activity against Mycobacterium smegmatis ATCC 14468 by agar dilution method; type: functional
[3] = tested on: Vero; assay: Cytotoxicity against african green monkey Vero cells after 72 hrs by MTT assay; type: cell-based; details: Chlorocebus sabaeus
[4] = tested on: Mycobacterium kansasii; assay: Antimycobacterial activity against Mycobacterium kansasii MTCC 3058 by agar dilution method; type: functional
[5] = tested on: Mycolicibacterium phlei; assay: Antimycobacterial activity against Mycobacterium phlei MTCC 1724 by agar dilution method; type: functional
[6] = tested on: Mycolicibacterium vaccae; assay: Antimycobacterial activity against Mycobacterium vaccae MTCC 997 by agar dilution method; type: functional
[7] = tested on: Mycolicibacterium fortuitum; assay: Antimycobacterial activity against Mycobacterium fortuitum MTCC 951 by agar dilution method; type: functional
[8] = tested on: Mycolicibacterium smegmatis; assay: Antimycobacterial activity against 6-week-starved culture of Mycobacterium smegmatis ATCC 14468 by agar dilution method; type: functional
[9] = tested on: Mycobacterium tuberculosis; assay: Antimycobacterial activity against log-phase culture of Mycobacterium tuberculosis H37Rv by agar dilution method; type: functional
[10] = tested on: Mycolicibacterium smegmatis; assay: Antimycobacterial activity against log-phase culture of Mycobacterium smegmatis ATCC 14468 by agar dilution method; type: functional
[11] = tested on: Mycobacterium tuberculosis; assay: Antimycobacterial activity against 6-week-starved culture of Mycobacterium tuberculosis H37Rv by agar dilution method; type: functional
[12] = Ratio of IC50 for african green monkey Vero cells to MIC for Mycobacterium tuberculosis H37Rv; type: functional

Row | SMILES | MIC [1] [µM] | MIC [2] [µM] | IC50 [3] [µM] | MIC [4] [µM] | MIC [5] [µM] | MIC [6] [µM] | MIC [7] [µM] | MIC [8] [µM] | MIC [9] [µM] | MIC [10] [µM] | MIC [11] [µM] | Ratio [12]
1 | Cc1cccnc1NC(=S)N/N=C/c1ccc([N+](=O)[O-])o1 | 5.1 (≈ 1.56 µg/mL) | 20.5 (≈ 6.26 µg/mL) | < 205 | 5.1 (≈ 1.56 µg/mL) | 10.2 (≈ 3.11 µg/mL) | 20.5 (≈ 6.26 µg/mL) | 10.2 (≈ 3.11 µg/mL) | – | – | – | – | –
2 | O=[N+]([O-])c1ccc(/C=N/NC(=S)Nc2ccc(Cl)cn2)o1 | 1.2 (≈ 0.391 µg/mL) | 2.4 (≈ 0.782 µg/mL) | 192 | 4.8 (≈ 1.56 µg/mL) | 38.3 (≈ 12.5 µg/mL) | 4.8 (≈ 1.56 µg/mL) | 38.3 (≈ 12.5 µg/mL) | 43.2 (≈ 14.1 µg/mL) | 1.2 (≈ 0.391 µg/mL) | 2.4 (≈ 0.782 µg/mL) | 38.3 (≈ 12.5 µg/mL) | –
3 | Cc1cc(C)nc(NC(=S)N/N=C/c2ccc([N+](=O)[O-])o2)c1 | 2.4 (≈ 0.766 µg/mL) | 4.8 (≈ 1.53 µg/mL) | < 196 | 39.1 (≈ 12.5 µg/mL) | 39.1 (≈ 12.5 µg/mL) | 39.1 (≈ 12.5 µg/mL) | 39.1 (≈ 12.5 µg/mL) | 91.2 (≈ 29.1 µg/mL) | – | 4.8 (≈ 1.53 µg/mL) | – | –
4 | CO[C@H]1/C=C/O[C@@]2(C)Oc3c(C)c(O)c4c(O)c(c(/C=N/N5CCN(C)CC5)c(O)c4c3C2=O)NC(=O)/C(C)=C\C=C\[C@H](C)[C@H](O)[C@@H](C)[C@@H](O)[C@@H](C)[C@H](OC(C)=O)[C@@H]1C [RIFAMPIN] | 0.23 (≈ 0.189 µg/mL) | 1.89 (≈ 1.56 µg/mL) | > 75.9 | 7.59 (≈ 6.25 µg/mL) | 30.4 (≈ 25 µg/mL) | 3.8 (≈ 3.13 µg/mL) | 1.89 (≈ 1.56 µg/mL) | 22.6 (≈ 18.6 µg/mL) | 0.23 (≈ 0.189 µg/mL) | 1.89 (≈ 1.56 µg/mL) | 15.2 (≈ 12.5 µg/mL) | –
5 | O=[N+]([O-])c1ccc(/C=N/NC(=S)Nc2ccccc2Br)o1 | 0.54 (≈ 0.199 µg/mL) | 33.8 (≈ 12.5 µg/mL) | > 169 | 8.4 (≈ 3.1 µg/mL) | 16.9 (≈ 6.24 µg/mL) | 16.9 (≈ 6.24 µg/mL) | 33.8 (≈ 12.5 µg/mL) | – | 0.54 (≈ 0.199 µg/mL) | – | 33.8 (≈ 12.5 µg/mL) | –
6 | COc1ccc(NC(=S)N/N=C/c2ccc([N+](=O)[O-])o2)c(OC)c1 | 4.4 (≈ 1.54 µg/mL) | 35.6 (≈ 12.5 µg/mL) | > 178 | 35.6 (≈ 12.5 µg/mL) | 4.4 (≈ 1.54 µg/mL) | 71.1 (≈ 24.9 µg/mL) | 35.6 (≈ 12.5 µg/mL) | – | – | – | – | –
7 | O=[N+]([O-])c1ccc(/C=N/NC(=S)Nc2ccccn2)o1 | 12.1 (≈ 3.52 µg/mL) | 48.4 (≈ 14.1 µg/mL) | 214 | 12.1 (≈ 3.52 µg/mL) | 6 (≈ 1.75 µg/mL) | 24.2 (≈ 7.05 µg/mL) | 48.4 (≈ 14.1 µg/mL) | – | – | – | – | –
8 | CCc1cccc(CC)c1NC(=S)N/N=C/c1ccc([N+](=O)[O-])o1 | 1.1 (≈ 0.381 µg/mL) | 36 (≈ 12.5 µg/mL) | > 180 | 36 (≈ 12.5 µg/mL) | 36 (≈ 12.5 µg/mL) | 72.1 (≈ 25 µg/mL) | 72.1 (≈ 25 µg/mL) | – | 1.2 (≈ 0.416 µg/mL) | – | 36 (≈ 12.5 µg/mL) | –
9 | O=[N+]([O-])c1ccc(/C=N/NC(=S)Nc2ncc(Br)cc2Br)o1 | 0.22 (≈ 0.0988 µg/mL) | 6.9 (≈ 3.1 µg/mL) | 139 | 1.7 (≈ 0.763 µg/mL) | 6.9 (≈ 3.1 µg/mL) | 3.4 (≈ 1.53 µg/mL) | 3.4 (≈ 1.53 µg/mL) | 124 (≈ 55.8 µg/mL) | 0.22 (≈ 0.0988 µg/mL) | 6.9 (≈ 3.1 µg/mL) | 13.9 (≈ 6.24 µg/mL) | 632.2
10 | Cc1ccc(NC(=S)N/N=C/c2ccc([N+](=O)[O-])o2)c(C)c1 | 2.45 (≈ 0.78 µg/mL) | 314 (≈ 100 µg/mL) | > 196 | 9.8 (≈ 3.12 µg/mL) | 4.9 (≈ 1.56 µg/mL) | 39.2 (≈ 12.5 µg/mL) | 39.2 (≈ 12.5 µg/mL) | – | – | – | – | –
11 | COc1ccc(NC(=S)N/N=C/c2ccc([N+](=O)[O-])o2)cc1 | 9.7 (≈ 3.11 µg/mL) | 39 (≈ 12.5 µg/mL) | > 195 | 39 (≈ 12.5 µg/mL) | 4.85 (≈ 1.55 µg/mL) | 78 (≈ 25 µg/mL) | 39 (≈ 12.5 µg/mL) | – | – | – | – | –
12 | Cc1ccc(C)c(NC(=S)N/N=C/c2ccc([N+](=O)[O-])o2)c1 | 1.2 (≈ 0.382 µg/mL) | 157 (≈ 50 µg/mL) | > 196 | 78.5 (≈ 25 µg/mL) | 4.8 (≈ 1.53 µg/mL) | 2.4 (≈ 0.764 µg/mL) | 78.5 (≈ 25 µg/mL) | – | 1.1 (≈ 0.35 µg/mL) | – | 154 (≈ 49 µg/mL) | –
13 | Cc1cccc(C)c1NC(=S)N/N=C/c1ccc([N+](=O)[O-])o1 | 4.9 (≈ 1.56 µg/mL) | 39.2 (≈ 12.5 µg/mL) | > 196 | 39.2 (≈ 12.5 µg/mL) | 9.8 (≈ 3.12 µg/mL) | 39.2 (≈ 12.5 µg/mL) | 39.2 (≈ 12.5 µg/mL) | – | – | – | – | –
14 | Cc1ccc(NC(=S)N/N=C/c2ccc([N+](=O)[O-])o2)cc1 | 5.1 (≈ 1.55 µg/mL) | 41 (≈ 12.5 µg/mL) | > 205 | 20.5 (≈ 6.24 µg/mL) | 2.5 (≈ 0.761 µg/mL) | 41 (≈ 12.5 µg/mL) | 41 (≈ 12.5 µg/mL) | – | – | – | – | –
15 | O=[N+]([O-])c1ccc(/C=N/NC(=S)Nc2ccccc2)o1 | 10.7 (≈ 3.11 µg/mL) | 172 (≈ 50 µg/mL) | > 215 | 5.3 (≈ 1.54 µg/mL) | 10.7 (≈ 3.11 µg/mL) | 43 (≈ 12.5 µg/mL) | 43 (≈ 12.5 µg/mL) | – | – | – | – | –
16 | NS(=O)(=O)c1ccc(NC(=S)N/N=C/c2ccc([N+](=O)[O-])o2)cc1 | 2.1 (≈ 0.776 µg/mL) | 8.4 (≈ 3.1 µg/mL) | < 169 | 33.8 (≈ 12.5 µg/mL) | 16.8 (≈ 6.21 µg/mL) | 2.1 (≈ 0.776 µg/mL) | 33.8 (≈ 12.5 µg/mL) | 75.6 (≈ 27.9 µg/mL) | – | 8.4 (≈ 3.1 µg/mL) | – | –
17 | Cc1ccnc(NC(=S)N/N=C/c2ccc([N+](=O)[O-])o2)c1 | 2.6 (≈ 0.794 µg/mL) | 20.5 (≈ 6.26 µg/mL) | < 205 | 5.1 (≈ 1.56 µg/mL) | 5.1 (≈ 1.56 µg/mL) | 2.6 (≈ 0.794 µg/mL) | 5.1 (≈ 1.56 µg/mL) | – | – | – | – | –
18 | O=C(O)c1cn(C2CC2)c2cc(N3CCNCC3)c(F)cc2c1=O [CIPROFLOXACIN] | – | 2.35 (≈ 0.779 µg/mL) | > 188 | 9.45 (≈ 3.13 µg/mL) | – | – | – | – | – | – | – | –
19 | NNC(=O)c1ccncc1 [ISONIAZID] | 0.66 (≈ 0.0905 µg/mL) | 45.6 (≈ 6.25 µg/mL) | > 456 | 182 (≈ 25 µg/mL) | 91.2 (≈ 12.5 µg/mL) | 182 (≈ 25 µg/mL) | 22.8 (≈ 3.13 µg/mL) | > 729 | 0.66 (≈ 0.0905 µg/mL) | 45.6 (≈ 6.25 µg/mL) | 729 (≈ 100 µg/mL) | –
20 | O=[N+]([O-])c1ccc(/C=N/NC(=S)Nc2ccc(Cl)cc2)o1 | 1.23 (≈ 0.399 µg/mL) | 19.1 (≈ 6.2 µg/mL) | > 192 | 38.4 (≈ 12.5 µg/mL) | 9.6 (≈ 3.12 µg/mL) | 9.6 (≈ 3.12 µg/mL) | 38.4 (≈ 12.5 µg/mL) | 134 (≈ 43.4 µg/mL) | – | 19.1 (≈ 6.2 µg/mL) | – | –
